The target in one assay is C. parvum PI(4)K (Cryptosporidium parvum, UniProt Q5CVD3). As to the kind of experiment: CpPI(4)K enzymatic assay (Transcreener ADP2 FP). Format: biochemical. The source says:
Baculovirus expression and purification of C. parvum phosphatidylinositol 4-kinase: The full-length coding sequence of C. parvum PI(4)K (cgd8_4500, 1114 amino acids) was codon-optimized for baculovirus expression, synthesized and cloned into pFastBac-HTb (Invitrogen 10584-027) in frame with the amino-terminal polyhistidine tag using the BamHI and HindIII restriction sites. Recombinant pFastBacHTb-CpPI(4)K bacmid clones were generated by site-specific transposition in E. coli DH10Bac (Invitrogen 10361-012). The bacmid sequence was confirmed by direct DNA sequencing to confirm a lack of mutations across the whole gene. The subsequent steps for bacmid isolation, transfection and selection of the recombinant viruses were performed according to the manufacturer's protocol (Bac-to-Bac system #10359, Invitrogen).
SF9 cells, cultured in […] serum-free medium, were transfected with recombinant baculovirus at 1/200 (v/v) and incubated at 27° C. for 72 h. The pellets were collected after centrifugation and re-suspended in cell lysis buffer (20 mM Tris-HCl, pH 7.5, 300 mM NaCl, 1 mM DTT, 20 mM imidazole, 0.01% Triton X-100 and 1× complete protease inhibitor cocktail without EDTA (Roche Diagnostics 04693116001)). The cell suspension was lysed by sonication and the clarified supernatant was loaded onto a 1 ml HisTrap affinity column (GE Healthcare) pre-equilibrated with buffer A (20 mM Tris-HCl, pH 7.5, 300 mM NaCl, 1 mM DTT, 20 mM Imidazole, and 1× complete protease inhibitor cocktail without EDTA). The column was washed with buffer B (buffer A containing 45 mM imidazole) and the bound protein of interest was eluted with buffer C (buffer A with 90 mM imidazole). The fractions containing CpPI(4)K were pooled, concentrated using Amicon Ultra-15 and purified by a gel-filtration column (Hi-Load 26/60 Superdex 200, GE Healthcare) equilibrated with 20 mM Tris, pH 7.5, 300 mM NaCl, 1 mM DTT and 1× protease inhibitor cocktail without EDTA. The concentrations of the purified protein (Mw 132.39 kda) was determined by using the protein molar extinction coefficient (ε280 nm=133,810 M^−1 cm^−1). Aliquots were flash frozen in liquid nitrogen and immediately stored at −80° C.
PI(4)K enzymatic Assay The CpPI(4)K enzymatic assay was performed as described earlier with a some modifications (McNamara et al., 2013). Briefly, L-α-phosphatidylinositol (Avanti Polar Lipid 840046), dissolved in 3% n-octylglucoside (Roche Diagnostics 10634425001), was used as the lipid substrate for the PI(4)K activity assay. CpPI(4)K was assayed using Transcreener ADP2 FP detection kit (BellBrook 3010) in a black, solid 384-well plate (Corning 3575). The final assay volume was 10 μl and contained 3 nM of the respective CpPI(4)K construct in 10 mM Tris, pH 7.5, 1 mM DTT, 3 μM ATP, 5 mM Mn2+, 0.05% Triton X-100 and 10 μM phosphatidylinositol/octylglucoside. The enzyme reaction was performed for 50 minutes at room temperature and was stopped by adding 10 μl of detection mix containing 1× stop buffer (50 mM HEPES, pH7.5, 400 mM NaCl, 20 mM EDTA, and 0.02% Brij-35), 2 nM AMP Alexa Fluor 633 tracer, and 20 μg ml^−1 ADP antibody. Fluorescence polarization measurements were performed on the Infinite M1000 plate reader (Tecan) with λex=635 nm and λem=680 nm (20-nm bandwidth). IC50 values were calculated using Graphpad Prism software.

For another assay, the system named is Cryptosporidium parvum. As to the kind of experiment: Cytopathic effect (CPE) based assay, C. parvum-infected HCT-8 cells. Format: cell-based. The conditions noted are these: HCT-8, 48 h, read-out: (b) C.p.* CPE EC50 (μM). The protocol: Human ileocecal colorectal adenocarcinoma cells (HCT-8 [HRT-18] ATCC, CCL-34) were maintained in T-175 flasks (Corning, 431080) in complete growth medium (RPMI-1640 medium (Gibco, 11875) supplemented with 10% heat-inactivated horse serum (Gibco, 26050), 1× MEM non-essential amino acids (Gibco, 11140), 10 mM HEPES (Gibco, 15630), 100 units/mL penicillin, and 100 units/mL streptomycin) at 37° C. and 5% CO2 in a humidified incubator. Cultures were passaged twice weekly using 10 mL of 1× Phosphate-Buffered Saline (PBS) without Ca^2+ and Mg^2+ (Gibco, 20012) for washing and 3-5 mL per T-175 flask of TrypLE Express Enzyme (Gibco, 12604) for dissociation of adherent cells.
Cryptosporidium parvum oocysts purchased from the Sterling Laboratory, University of Arizona (Iowa isolate) were purified from infected calf feces using discontinuous sucrose and cesium chloride centrifugation gradients and stored in PBS solution containing 0.01% Tween 20, 100 units/mL penicillin and 100 units/mL gentamicin.
Excystaion and infection: Excystation and infection protocols were developed following established methods with some modifications (Gut & Nelson, 1999, Upton et al., 1995, Bessoff et al., 2013). Briefly, oocysts were primed in 1 mL of 10 mM hydrochloric acid in 1× Hank's Balanced Salt Solution (HBSS) (Gibco, 14025) for 10 minutes with agitation at 1000 rpm, 37° C. on an Eppendorf thermomixer, then washed twice with 1 mL of room temperature non-acidic 1× HBSS by centrifugation at 13,000 rpm for 3 minutes at 25° C. Primed oocysts were further excysted at a concentration of 1×10^6 oocysts/μL in parasite infection medium consisting of a pre-warmed and pre-gassed 1:1 formulation of Leibovitz's L-15 medium (Gibco, 11415) and UltraCULTURE medium (Lonza, 12-725F) supplemented with 2 mM sodium taurocholate (Sigma, 86339-1), 10% heat-inactivated horse serum, and 200 μM L-ascorbic acid (Sigma, 95210) at 25° C. for 10 minutes. HCT-8 monolayer cells were infected with excysted cryptosporidium at a specified multiplicity of infection (MOI). All dilutions for subsequent assays were performed in parasite infection medium without sodium taurocholate. Pre-excysted oocysts were enumerated microscopically using a C-Chip disposable hemocytometer (NanoEnTek, DHC-N01).
Compound and assay plate preparation: Compound powders were dissolved in neat DMSO (Fisher, D4121) to 10 mM and stored at 4° C. prior to dilution into source plates. Dilutions were carried out using a Microlab STAR liquid handler (Hamilton) to obtain compound source plates containing the ten-point or eight-point three fold dilutions starting from 10 mM in duplicates. Source plates were stored at 4° C. prior to spotting into assay plates. Before administration, all compound source plates were equilibrated to room temperature. A specified volume of compounds from source plate were spotted to assay plate using an Echo Acoustic liquid handler (LABCYTE, 550) so that the final DMSO concentration was less than 0.5%. Each assay plate a specified number of DMSO-treated negative control wells and a well-studied potent active compound at 100 nM as positive control. As a quality control, all positive and negative-control wells were used to calculate a Z′-value and signal to noise ratio (S:N) for each plate.
Cryptosporidium spp are obligate-intracellular parasites that infect intestinal epithelial cells and the host cell is killed upon parasite egress. […] The loss of epithelial cells is due to both rapid parasite invasion/multiplication/egress and also pro-inflammatory immune response (Adams et al., 1994, Griffiths et al., 1994). We have observed a consistent cytopathic effect (CPE) in HCT-8 cells with C. spp infection the loss of viability of the host cells using CellTiter-Glo reagent.
Confluent HCT-8 cells in T-175 flasks were directly infected with excysted oocysts at an MOI (host to parasite) of 1:2 for C. parvum and 1:4 for C. hominis. […]

C. parvum PI(4)K, sequence (Q5CVD3 entry or part of it): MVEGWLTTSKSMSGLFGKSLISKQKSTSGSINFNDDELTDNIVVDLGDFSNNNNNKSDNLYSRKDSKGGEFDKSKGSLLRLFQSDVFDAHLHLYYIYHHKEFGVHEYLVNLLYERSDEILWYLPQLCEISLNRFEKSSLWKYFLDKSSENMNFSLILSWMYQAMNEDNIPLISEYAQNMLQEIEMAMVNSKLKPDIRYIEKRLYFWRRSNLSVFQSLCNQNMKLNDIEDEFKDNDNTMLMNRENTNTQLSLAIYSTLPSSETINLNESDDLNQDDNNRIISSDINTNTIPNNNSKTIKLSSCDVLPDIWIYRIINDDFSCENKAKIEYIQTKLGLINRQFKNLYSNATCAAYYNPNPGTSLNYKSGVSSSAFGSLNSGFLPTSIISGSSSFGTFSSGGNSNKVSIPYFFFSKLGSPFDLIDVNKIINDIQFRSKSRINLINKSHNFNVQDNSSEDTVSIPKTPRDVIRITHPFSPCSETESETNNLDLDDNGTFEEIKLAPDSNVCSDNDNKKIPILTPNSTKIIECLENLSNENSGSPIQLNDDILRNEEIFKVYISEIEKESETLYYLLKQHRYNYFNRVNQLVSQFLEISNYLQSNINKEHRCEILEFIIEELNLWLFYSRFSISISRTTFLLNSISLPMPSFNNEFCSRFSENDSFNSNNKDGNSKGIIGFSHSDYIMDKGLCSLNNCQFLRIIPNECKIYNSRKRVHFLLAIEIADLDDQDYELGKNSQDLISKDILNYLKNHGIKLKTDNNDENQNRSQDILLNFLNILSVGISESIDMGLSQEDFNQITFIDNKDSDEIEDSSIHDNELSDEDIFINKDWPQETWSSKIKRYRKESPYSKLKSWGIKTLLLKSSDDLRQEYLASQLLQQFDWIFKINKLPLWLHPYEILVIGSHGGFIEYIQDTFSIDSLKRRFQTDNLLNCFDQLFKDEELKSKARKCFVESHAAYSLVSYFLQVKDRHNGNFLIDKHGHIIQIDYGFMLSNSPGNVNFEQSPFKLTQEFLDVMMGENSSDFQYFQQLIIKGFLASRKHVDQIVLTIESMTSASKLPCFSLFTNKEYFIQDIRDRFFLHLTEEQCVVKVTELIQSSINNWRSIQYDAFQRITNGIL

For the molecule `CSCCOC(=O)c1cc(N(C)C(=O)c2ccn3ncc(-c4ccc(C(N)=O)cc4)c3c2)ccc1Cl` [Example 1.04, 2-(Methylthio)ethyl 5-(3-(4-carbamoylphenyl)-N-methylpyrazolo[1,5-a]pyridine-5-carboxamido)-2-chlorobenzoate], the IC50 on C. parvum PI(4)K is below 100 nM. The EC50 in the assay on Cryptosporidium parvum was above 1 µM.

Consider `CC(C)OC(=O)c1cc(N(C)C(=O)c2ccn3ncc(-c4ccc(C(N)=O)cc4)c3c2)ccc1Cl` [Example 1.13, Isopropyl 5-(3-(4-carbamoylphenyl)-N-methylpyrazolo[1,5-a]pyridine-5-carboxamido)-2-chlorobenzoate], for which the half-maximal inhibitory concentration (IC50) against C. parvum PI(4)K is below 100 nM. The EC50 in the assay on Cryptosporidium parvum fell in the range of 0.1 to 1 µM.

In turn, `CC(C)COC(=O)c1cc(N(C)C(=O)c2ccn3ncc(-c4ccc(C(N)=O)cc4)c3c2)ccc1Cl` [Example 1.05, Isobutyl 5-(3-(4-carbamoylphenyl)-N-methylpyrazolo[1,5-a]pyridine-5-carboxamido)-2-chlorobenzoate] had a half-maximal inhibitory concentration (IC50) against C. parvum PI(4)K below 100 nM. Besides, the EC50 with Cryptosporidium parvum was 0.1 to 1 µM.

In turn, `CNC(=O)c1ccc(-c2cnn3ccc(C(=O)N(C)c4ccc(Cl)c(C(=O)OC(C)(C)C)c4)cc23)cc1` [Example 1.17, t-Butyl 2-chloro-5-(N-methyl-3-(4-(methylcarbamoyl)phenyl)pyrazolo[1,5-a]pyrdine-5-carboxamido)benzoate] returned a 50% inhibitory concentration (IC50) on C. parvum PI(4)K below 100 nM. Besides, in the assay on Cryptosporidium parvum, the EC50 is below 0.1 µM.

In turn, `CN(C(=O)c1ccn2ncc(-c3ccc(C(N)=O)cc3)c2c1)c1ccc(Cl)c(C(=O)OC(C)(C)C)c1` [Example 1.02, tert-Butyl 5-(3-(4-carbamoylphenyl)-N-methylpyrazolo[1,5-a]pyridine-5-carboxamido)-2-chlorobenzoate] yielded an IC50 against C. parvum PI(4)K below 100 nM. Also, the EC50 in the assay on Cryptosporidium parvum lay within 0.1 to 1 µM.

As for `CCOC(=O)c1cc(N(C)C(=O)c2ccn3ncc(-c4ccc(C(N)=O)cc4)c3c2)ccc1Cl` [Example 1.09, Ethyl 5-(3-(4-carbamoylphenyl)-N-methylpyrazolo[1,5-a]pyridine-5-carboxamido)-2-chlorobenzoate], on C. parvum PI(4)K, the 50% inhibitory concentration (IC50) is below 100 nM. In addition, the concentration giving a half-maximal response (EC50) in the assay with Cryptosporidium parvum was in the range of 0.1 to 1 µM.

In turn, `CN(C)C(=O)COC(=O)c1cc(N(C)C(=O)c2ccn3ncc(-c4ccc(C(N)=O)cc4)c3c2)ccc1Cl` [Example 1.12, 2-(Dimethylamino)-2-oxoethyl 5-(3-(4-carbamoylphenyl)-N-methylpyrazolo[1,5-a]pyridine-5-carboxamido)-2-chlorobenzoate] yielded an IC50 against C. parvum PI(4)K below 100 nM. For the same molecule, the 50% effective concentration (EC50) with Cryptosporidium parvum lay in the range of 0.1 to 1 µM.

Molecule `CN(C(=O)c1ccn2ncc(-c3ccc(C(N)=O)cc3)c2c1)c1ccc(Cl)c(C(=O)OCC(F)(F)F)c1` [Example 1.10, 2,2,2-Trifluoroethyl 5-(3-(4-carbamoylphenyl)-N-methylpyrazolo[1,5-a]pyridine-5-carboxamido)-2-chlorobenzoate] came in with a half-inhibitory concentration (IC50) at C. parvum PI(4)K below 100 nM. Moreover, in the assay on Cryptosporidium parvum, the concentration for a half-maximal effect (EC50) is above 1 µM.

`COCCOC(=O)c1cc(N(C)C(=O)c2ccn3ncc(-c4ccc(C(N)=O)cc4)c3c2)ccc1Cl` [Example 1.11, 2-Methoxyethyl 5-(3-(4-carbamoylphenyl)-N-methylpyrazolo[1,5-a]pyridine-5-carboxamido)-2-chlorobenzoate] had a half-maximal inhibitory concentration (IC50) against C. parvum PI(4)K below 100 nM. Moreover, in the assay on Cryptosporidium parvum, the EC50 fell in the range of 0.1 to 1 µM.

For `CNC(=O)c1ccc(-c2cnn3ccc(C(=O)N(C)c4ccc(OC(F)(F)F)c(C(=O)OC)c4)cc23)cc1` [Example 1.26, Methyl 5-(N-methyl-3-(4-(methylcarbamoyl)phenyl)pyrazolo[1,5-a]pyridine-5-carboxamido)-2-(trifluoromethoxy)benzoate], at C. parvum PI(4)K, the 50% inhibitory concentration (IC50) was below 100 nM. In the assay on Cryptosporidium parvum, the EC50 lay in the range of 0.1 to 1 µM.

`CN(C(=O)c1ccn2ncc(-c3ccc(C(N)=O)cc3)c2c1)c1ccc(Cl)c(C(=O)OCC2CCCO2)c1` (racemic) [Example 1.15, rac-(Tetrahydrofuran-2-yl)methyl 5-(3-(4-carbamoylphenyl)-N-methylpyrazolo[1,5-a]pyridine-5-carboxamido)-2-chlorobenzoate] yielded an IC50 against C. parvum PI(4)K below 100 nM. In addition, the EC50 with Cryptosporidium parvum fell in the range of 0.1 to 1 µM.

Take `CN(C(=O)c1ccn2ncc(-c3ccc(C(N)=O)cc3)c2c1)c1ccc(Cl)c(C(=O)OCc2cncs2)c1` [Example 1.07, Thiazol-5-ylmethyl 5-(3-(4-carbamoylphenyl)-N-methylpyrazolo[1,5-a]pyridine-5-carboxamido)-2-chlorobenzoate]: the IC50 on C. parvum PI(4)K is below 100 nM. Further, the EC50 in the assay on Cryptosporidium parvum lay within 0.1 to 1 µM.

On C. parvum PI(4)K, `COC(=O)COC(=O)c1cc(N(C)C(=O)c2ccn3ncc(-c4ccc(C(N)=O)cc4)c3c2)ccc1Cl` [Example 1.06, 2-Methoxy-2-oxoethyl 5-(3-(4-carbamoylphenyl)-N-methylpyrazolo[1,5-a]pyridine-5-carboxamido)-2-chlorobenzoate] registered a concentration for half-maximal inhibition (IC50) below 100 nM. Moreover, the 50% effective concentration (EC50) with Cryptosporidium parvum was above 1 µM.

For the origin of these results see patent US12018024B2, “Compounds and compositions for the treatment of cryptosporidiosis” (Novartis AG, priority 2020, dated 2024).
